From publication PMC8776063, “Aurora Kinase A Is Involved in Controlling the Localization of Aquaporin-2 in Renal Principal Cells” (International Journal of Molecular Sciences, 2022)
Read-outs that look alike come from different tables or passages of the source. Blank lines part the entries; values can stand above or below the molecule they belong to.

Assays:
primary IMCD cells [1] = test: F-actin stress fiber staining (phalloidin); format: cell-based, rat; settings: compound 20 µM, 1 h
MCD4 cells [2] = test: AQP2 redistribution, immunofluorescence microscopy; settings: compound 30 µM, 1 h (Aurora-A inhibitor I 1-30 µM), forskolin 30 µM, 30 min
[3] = tested on: complex of AURKA and TPX2; design: method as in PMID 26732741; settings: cited from earlier work
[4] = tested on: CFL1 phosphorylation in MCD4 cells; test: CFL1 phosphorylation, Western blotting; format: cell-based, mouse; settings: compound 30 µM, 1 h
MCD4 cells [5] = test: F-actin stress fiber staining (phalloidin); format: cell-based, mouse; settings: compound 30 µM, 1 h
primary IMCD cells [6] = test: AQP2 redistribution, immunofluorescence microscopy; settings: compound 20 µM, 1 h (Aurora-A inhibitor I 1-30 µM), AVP 100 nM, 30 min
M12 cells = tested on: M12 cells; design: method as in PMID 25090971; settings: cited from earlier work
AURKB = AURKB (Homo sapiens, UniProt Q96GD4); test: NanoBRET assay in HEK293T cells; format: cell-based; design: full-length wild-type AURKA, AURKB, and AURKC were obtained as plasmids cloned in frame with a C-terminal NanoLuc-fusion; host or cells: HEK293T; settings: NanoBRET
AURKB, sequence (Q96GD4 whole entry, the tested form may be a part): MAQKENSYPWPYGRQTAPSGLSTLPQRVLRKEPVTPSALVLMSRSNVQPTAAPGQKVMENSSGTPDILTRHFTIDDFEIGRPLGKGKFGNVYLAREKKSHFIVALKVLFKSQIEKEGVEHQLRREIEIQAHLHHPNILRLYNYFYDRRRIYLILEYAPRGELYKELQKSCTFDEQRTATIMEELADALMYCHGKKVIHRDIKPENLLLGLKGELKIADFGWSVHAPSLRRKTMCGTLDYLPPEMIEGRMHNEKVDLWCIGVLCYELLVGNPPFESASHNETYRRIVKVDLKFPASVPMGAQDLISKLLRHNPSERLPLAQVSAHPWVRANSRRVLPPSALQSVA

AURKC = molecular target: T1, AURKC (Homo sapiens, UniProt Q9UQB9); test: NanoBRET assay in HEK293T cells; format: cell-based; settings: NanoBRET, Figure 6B, read-out: affinity to intracellular AURKC
T1 construct: full-length wild-type AURKA, AURKB, and AURKC were obtained as plasmids cloned in frame with a C-terminal NanoLuc-fusion; host or cells: HEK293T
T1 sequence (Q9UQB9 1-309): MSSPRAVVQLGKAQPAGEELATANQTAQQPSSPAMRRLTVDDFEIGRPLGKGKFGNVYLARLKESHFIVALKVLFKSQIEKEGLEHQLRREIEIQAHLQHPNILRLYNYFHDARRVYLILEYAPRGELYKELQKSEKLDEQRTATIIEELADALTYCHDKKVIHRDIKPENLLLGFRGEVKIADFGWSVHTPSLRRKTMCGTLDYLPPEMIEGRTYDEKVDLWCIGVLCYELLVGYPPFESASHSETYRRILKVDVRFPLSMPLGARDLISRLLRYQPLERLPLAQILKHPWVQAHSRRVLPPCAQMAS

AURKA = molecular target: T2, AURKA (Homo sapiens, UniProt O14965); test: NanoBRET assay in HEK293T cells; format: cell-based; settings: NanoBRET
T2 construct: full-length wild-type AURKA, AURKB, and AURKC were obtained as plasmids cloned in frame with a C-terminal NanoLuc-fusion; host or cells: HEK293T
T2 sequence (O14965 1-403): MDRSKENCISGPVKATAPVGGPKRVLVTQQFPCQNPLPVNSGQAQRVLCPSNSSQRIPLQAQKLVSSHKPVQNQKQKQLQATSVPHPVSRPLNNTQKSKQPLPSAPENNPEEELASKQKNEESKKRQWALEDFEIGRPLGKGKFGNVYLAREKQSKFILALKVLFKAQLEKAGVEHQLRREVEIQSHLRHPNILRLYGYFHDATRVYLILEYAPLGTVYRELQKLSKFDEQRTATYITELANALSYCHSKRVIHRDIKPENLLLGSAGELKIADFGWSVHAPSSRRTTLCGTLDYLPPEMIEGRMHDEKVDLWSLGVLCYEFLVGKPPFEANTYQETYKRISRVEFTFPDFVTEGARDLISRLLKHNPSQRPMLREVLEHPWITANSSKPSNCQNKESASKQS

MCD4 cells [7] = test: MTS assay (cell viability); format: cell-based, mouse; settings: 30 µM, 10 µM or 1 µM, 1 h; compared to untreated cells
STK17A = molecular target: T3, STK17A (Homo sapiens, UniProt Q9UEE5); test: Thermal shift assay; format: binding; settings: read-out: ΔTm STK17A
T3 construct: purchased in-house thermal shift (DSF) kinase panel (SGC Frankfurt); Promega NanoBRET for AURKA/B/C
T3 sequence (Q9UEE5 61-321): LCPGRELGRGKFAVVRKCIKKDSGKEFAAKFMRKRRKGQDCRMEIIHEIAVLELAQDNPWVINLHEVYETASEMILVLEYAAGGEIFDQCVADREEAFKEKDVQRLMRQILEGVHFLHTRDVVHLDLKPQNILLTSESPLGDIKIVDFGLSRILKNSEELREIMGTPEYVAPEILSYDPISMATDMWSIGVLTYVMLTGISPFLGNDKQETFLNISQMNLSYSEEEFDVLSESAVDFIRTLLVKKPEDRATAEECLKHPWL

CAMKK2 = molecular target: T4, CAMKK2 (Homo sapiens, UniProt Q96RR4); test: Thermal shift assay; format: binding; settings: read-out: ΔTm CAMKK2
T4 construct: purchased in-house thermal shift (DSF) kinase panel (SGC Frankfurt); Promega NanoBRET for AURKA/B/C
T4 sequence (Q96RR4 161-449): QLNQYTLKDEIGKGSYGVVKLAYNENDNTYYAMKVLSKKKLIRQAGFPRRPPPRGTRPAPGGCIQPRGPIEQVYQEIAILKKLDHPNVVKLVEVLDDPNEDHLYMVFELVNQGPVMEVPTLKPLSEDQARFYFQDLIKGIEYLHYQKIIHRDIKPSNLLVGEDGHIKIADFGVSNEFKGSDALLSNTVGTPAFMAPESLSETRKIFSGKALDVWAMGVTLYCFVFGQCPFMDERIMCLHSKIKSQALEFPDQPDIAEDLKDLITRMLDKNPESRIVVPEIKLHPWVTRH

STK39 = molecular target: T5, STK39 (Homo sapiens, UniProt Q9UEW8); test: Thermal shift assay; format: binding; settings: read-out: ΔTm STK39
T5 construct: purchased in-house thermal shift (DSF) kinase panel (SGC Frankfurt); Promega NanoBRET for AURKA/B/C

STK3 = molecular target: T6, STK3 (Homo sapiens, UniProt Q13188); test: Thermal shift assay; format: binding; settings: read-out: ΔTm STK3
T6 construct: purchased in-house thermal shift (DSF) kinase panel (SGC Frankfurt); Promega NanoBRET for AURKA/B/C
T6 sequence (Q13188 16-313): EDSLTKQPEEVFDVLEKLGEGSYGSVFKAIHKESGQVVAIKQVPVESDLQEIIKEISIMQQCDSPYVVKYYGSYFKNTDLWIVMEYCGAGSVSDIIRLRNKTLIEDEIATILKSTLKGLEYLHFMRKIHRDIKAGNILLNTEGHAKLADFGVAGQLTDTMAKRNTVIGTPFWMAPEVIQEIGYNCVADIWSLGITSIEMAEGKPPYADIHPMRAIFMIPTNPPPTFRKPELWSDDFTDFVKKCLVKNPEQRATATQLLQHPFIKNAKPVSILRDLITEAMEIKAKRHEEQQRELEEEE

[8] = HEK293T cells overexpressing the kinase, Table 2, read-out: AURKB IC50
[9] = n = 2, mean, Figure 6B, read-out: affinity to intracellular AURKA
[10] = HEK293T cells overexpressing the kinase, Table 2, read-out: AURKA IC50

SMILES: COc1cc(Nc2ncc3c(n2)-c2ccc(Cl)cc2C(c2c(F)cccc2OC)=NC3)ccc1C(=O)O [Alisertib, reference compound]
effect on actin stress fibers (primary IMCD cells [1]): promoted or maintained the formation of actin stress fibers | inhibition of the forskolin-induced redistribution of AQP2 to the plasma membrane (MCD4 cells [2]): significantly inhibited | decrease of affinity for AURKA in the presence of TPX2 [3]: 5.8 fold | CFL1 phosphorylation in resting cells ([4]; no forskolin): not reduced | effect on actin stress fibers (MCD4 cells [5]): promoted or maintained the formation of actin stress fibers | inhibition of the AVP-induced redistribution of AQP2 to the plasma membrane (primary IMCD cells [6]): significantly inhibited | phosphorylation of CFL1 (M12 cells): increased

SMILES: CCN(CCO)CCCOc1ccc2c(Nc3cc(CC(=O)Nc4cccc(F)c4)n[nH]3)ncnc2c1 [Barasertib-HQPA, reference compound]
effect on actin stress fibers (primary IMCD cells [1]): resembled those of the control cells | inhibition of the forskolin-induced redistribution of AQP2 to the plasma membrane (MCD4 cells [2]): did not | CFL1 phosphorylation ([4]; absence and presence of forskolin): no effect | effect on actin stress fibers (MCD4 cells [5]): resembled those of the control cells | inhibition of the AVP-induced redistribution of AQP2 to the plasma membrane (primary IMCD cells [6]): No inhibitory effect

SMILES: O=C(Nc1ccccc1Cl)c1ccc(Nc2nc(Nc3ccc(CC(=O)N4CCOCC4)cc3)ncc2F)cc1 [ERJ2-03]
IC50 (AURKB; [8]): > 50 µM | IC50 (AURKC; n = 2, bounds): > 50 µM | viability of MCD4 cells (MCD4 cells [7]): reduced by 10 or 30 µM | inhibition of the forskolin-induced redistribution of AQP2 to the plasma membrane (MCD4 cells [2]): not being an inhibitor | IC50 (AURKA; [10]): 1.08 µM

SMILES: O=C(Cc1ccc(Nc2ncc(F)c(Nc3ccc(C(=O)Nc4ccccc4Cl)cc3)n2)cc1)NCCO [ERJ2-08]
IC50 (AURKB; [8]): 16.1 µM | IC50 (AURKC; n = 2, mean): 17 µM | viability of MCD4 cells (MCD4 cells [7]): partly increased | IC50 (AURKA; [10]): 0.237 µM

SMILES: O=C(O)c1ccc(Nc2ncc(F)c(Nc3ccc(C(=O)O)cc3)n2)cc1 [ERJ2-09]
IC50 (AURKB; [8]): > 50 µM

SMILES: CCN1CCN(C(=O)Cc2ccc(Nc3ncc(F)c(Nc4ccc(C(=O)N5CCN(CC)CC5)cc4)n3)cc2)CC1 [ERJ2-13]
IC50 (AURKB; [8]): > 50 µM | IC50 (AURKC; n = 2, bounds): > 50 µM | IC50 (AURKA; [10]): 37.3 µM

SMILES: CN[C@@H]1C[C@H]2O[C@@](C)([C@@H]1OC)n1c3ccccc3c3c4c(c5c6ccccc6n2c5c31)C(=O)NC4 [Staurosporine, reference compound]
ΔTm at 10 µM (STK17A): 12.9 °C | ΔTm at 10 µM (CAMKK2): 24.2 °C | ΔTm at 10 µM (STK39): 9.9 °C | ΔTm at 10 µM (STK3): 13.7 °C

Now from value to molecule, other results behind:

IC50 (AURKB; [8]): > 50 µM | IC50 (AURKC; n = 2, bounds): > 50 µM | IC50 (AURKA; [9]): 1.33 µM
SMILES: O=C(O)Cc1ccc(Nc2ncc(F)c(Nc3ccc(C(=O)Nc4ccccc4Cl)cc3)n2)cc1 [ERJ2-02]

IC50 (AURKB; n = 2, mean, Figure 6B, read-out: affinity to intracellular AURKB): 16.8 µM | IC50 (AURKC; n = 2, mean): 12.9 µM | IC50 (AURKA; [9]): 0.24 µM
SMILES: COCCNC(=O)Cc1ccc(Nc2ncc(F)c(Nc3ccc(C(=O)Nc4ccccc4Cl)cc3)n2)cc1 [ERJ2-05]
viability of MCD4 cells (MCD4 cells [7]): partly increased

IC50 (AURKB; [8]): > 50 µM | IC50 (AURKC; n = 2, bounds): > 50 µM | IC50 (AURKA; [10]): 22.8 µM
SMILES: O=C(O)Cc1ccc(Nc2ncc(F)c(Nc3ccc(C(=O)Nc4ccccc4)cc3)n2)cc1 [ERJ2-10]

IC50 (AURKB; [8]): > 50 µM | IC50 (AURKC; n = 2, bounds): > 50 µM | IC50 (AURKA; [10]): > 50 µM
SMILES: CCN1CCN(C(=O)Cc2ccc(Nc3ncc(F)c(Nc4ccc(C(=O)NCCN5CCCC5)cc4)n3)cc2)CC1 [ERJ2-16]
